The values below come from ChEMBL document CHEMBL3045145, “Synthesis, characterization and their anticonvulsant, anti-inflammatory studies of some novel chromeno oxadiazoles” (2013).

Holding throughout (type): functional
In experiment [1] the test system is Rattus norvegicus. Briefly: Anti-inflammatory activity in Rattus norvegicus Wistar (rat) assessed as inhibition of carrageenan-induced paw edema at 20 mg/kg, ip administered 30 min post carrageenan-challenge measured after 3 hr relative to control. The conditions noted are these: route intraperitoneal. (The carrageenan paw model is a standard test of acute inflammation.)

Experiment [2] has as its system Mus musculus. Put plainly: Anticonvulsant activity in Mus musculus albino (mouse) assessed as time of onset of PTZ-induced clonic convulsion at 25 mg/kg, po administered 30 min prior to PTZ-challenge (reference value: 61 secs).
Experiment [3] concerns Mus musculus. Briefly: Anticonvulsant activity in Mus musculus albino (mouse) assessed as protection against PTZ-induced clonic convulsion at 25 mg/kg, po administered 30 min prior to PTZ-challenge relative to control.
For experiment [4], the system named is Rattus norvegicus. Briefly: Anti-inflammatory activity in Rattus norvegicus Wistar (rat) assessed as inhibition of carrageenan-induced paw edema at 10 mg/kg, ip administered 30 min post carrageenan-challenge measured after 3 hr relative to control. The conditions noted are these: route intraperitoneal.

Each structure is given as a SMILES string.

Take `C(/C=C/c1ccccc1)=N/C1Oc2ccccc2CC1c1noc(/C=C/c2ccccc2)n1` (stereo not given): the inhibition in vivo – broadly, the relative decrease from the control value, in per cent – at 20 mg/kg in the experiment on Rattus norvegicus [1] came out at 23.6%.

In the case of `COc1cc(/C=N/C2Oc3ccccc3CC2c2noc(-c3ccc(O)c(OC)c3)n2)ccc1O` (stereo not given), the inhibition in vivo at 20 mg/kg in the experiment with Rattus norvegicus [1] was 42.5%. Moreover, the Time with Mus musculus [2] came out at 80 s. In addition, in the experiment on Mus musculus [3], the Activity came out at 66.6%.

As for `Fc1ccc(/C=N/C2Oc3ccccc3CC2c2noc(-c3ccc(F)cc3)n2)cc1` (stereo not given), the Time in the experiment on Mus musculus [2] came to 101 s. Also, the Activity with Mus musculus [3] is 100%.

Turning to `Clc1ccccc1/C=N/C1Oc2ccccc2CC1c1noc(-c2ccccc2Cl)n1` (stereo not given), the inhibition in vivo at 20 mg/kg in the experiment on Rattus norvegicus [1] worked out at 37%. Besides, in the experiment with Mus musculus [2], the Time stood at 226 s. For the same compound, the Activity with Mus musculus [3] is recorded as 100%.

Consider `Fc1ccc(/C=N/C2Oc3ccccc3CC2c2noc(-c3ccc(F)c(Oc4ccccc4)c3)n2)cc1Oc1ccccc1` (stereo not given), for which the inhibition in vivo at 20 mg/kg with Rattus norvegicus [1] turned out to be 37%.

With `COc1ccc(/C=N/C2Oc3ccccc3CC2c2noc(-c3ccc(OC)c(OC)c3)n2)cc1OC` (stereo not given), the inhibition in vivo at 20 mg/kg with Rattus norvegicus [1] amounted to 31.5%. For the same compound, the Time in the experiment on Mus musculus [2] worked out at 158 s. The Activity in the experiment on Mus musculus [3] is 100%.

As to `Oc1ccccc1/C=N/C1Oc2ccccc2CC1c1noc(-c2ccccc2O)n1` (stereo not given), the inhibition in vivo at 20 mg/kg in the experiment with Rattus norvegicus [1] is 27.5%. Further, the Time with Mus musculus [2] came to 325 s. For the same compound, the Activity in the experiment on Mus musculus [3] stood at 100%.

In the case of `O=C(O)Cc1ccccc1Nc1c(Cl)cccc1Cl` [DICLOFENAC], in the experiment on Rattus norvegicus [4], the inhibition in vivo at 10 mg/kg turned out to be 80.4%.

For `Clc1ccc(/C=N/C2Oc3ccccc3CC2c2noc(-c3ccc(Cl)cc3)n2)cc1` (stereo not given), the inhibition in vivo at 20 mg/kg in the experiment on Rattus norvegicus [1] amounted to 26.8%. Moreover, the Time in the experiment on Mus musculus [2] was 218 s. For the same compound, in the experiment with Mus musculus [3], the Activity was found to be 100%.

On to `Brc1ccc(/C=N/C2Oc3ccccc3CC2c2noc(-c3ccc(Br)cc3)n2)cc1` (stereo not given), for which the Time in the experiment with Mus musculus [2] stood at 104 s. In the experiment with Mus musculus [3], the Activity was found to be 100%.

Regarding `C(=N\C1Oc2ccccc2CC1c1noc(-c2nccs2)n1)/c1nccs1` (stereo not given), the inhibition in vivo at 20 mg/kg in the experiment on Rattus norvegicus [1] amounted to 17.3%. Moreover, the Time in the experiment on Mus musculus [2] turned out to be 201 s. The Activity in the experiment on Mus musculus [3] worked out at 100%.

For `Fc1ccc(Br)cc1/C=N/C1Oc2ccccc2CC1c1noc(-c2cc(Br)ccc2F)n1` (stereo not given), in the experiment with Mus musculus [2], the Time was 128 s. Moreover, in the experiment on Mus musculus [3], the Activity is listed as 66.6%.

For `O=[N+]([O-])c1cccc(/C=N/C2Oc3ccccc3CC2c2noc(-c3cccc([N+](=O)[O-])c3)n2)c1` (stereo not given), in the experiment with Rattus norvegicus [1], the inhibition in vivo at 20 mg/kg is 40.9%. Moreover, in the experiment with Mus musculus [2], the Time stood at 60 s. Also, in the experiment with Mus musculus [3], the Activity was 100%.
